Measurements from patent EP4711366A1, “PYRIMIDO MACROHETEROCYCLIC COMPOUND AS WEE1-YES DUAL-TARGET INHIBITOR AND USE THEREOF” (Mindrank AI Ltd., priority 2023, dated 2024).

Key:
Wee1 kinase = Wee1 kinase (Homo sapiens, UniProt P30291); test: WEE1 protein kinase inhibitory activity assay (ADP-GLO luminescence); type: biochemical; conditions: for IC50: Wee1 10 ng/well, ATP 10 µM, 3 h, 37 °C; for inhibition of the Weel target (in words): summary statement on the assay results
Description: The influence of the compound MRANK-106 of the present disclosure on the kinase activity of Weel was assessed using an in vitro kinase reaction system.
Table 2-1. Information about reagents and consumables
① 1× kinase buffer: A 5× kinase buffer was diluted with ddH2O to make a 1× kinase buffer. Table 2-3. The reagent components added to the 1× kinase buffer
③ 5× enzyme working solution: The optimization of the enzyme concentration had been completed in previous work, and the concentration of the reagent used in the screening is shown in Table 2-4. A 5× enzyme working solution of the enzyme was formulated using the 1× kinase buffer.
④ Compound formulation: A 10 mM mother liquor was formulated using DMSO, aliquoted, and then stored at -20 °C. Immediately before use, the mother liquor was thawed, diluted with DMSO to 1 mM, serially diluted 4-fold to 10 concentration points, and then 40-fold diluted with the 1× kinase buffer to give a 2.5× working solution. Table 2-4. The experimental conditions for the kinase activity assay
After the above reagents were formulated and equilibrated to room temperature, 4 µL of the diluted solution of the compound to be tested and 2 µL of the formulated enzyme solution were added to reaction wells. After shaking and centrifugation, the plate was incubated at room temperature for 15 min, and 4 µL of the ATP solution was then added to start a kinase reaction. After 3 h of reaction at 37 °C, 10 µL of an ADP-GLO reagent was added. After thorough mixing, the mixture was left to react at room temperature for 40 min, and 20 µL of a detection reagent was then added. After 30 min of reaction at room temperature, the luminescence signals were detected using a SpectraMax L instrument. Two independent duplicate assays were performed. The inhibition rate of each well was calculated based on all activity wells and background signal wells, with an average calculated for duplicate wells. Meanwhile, the inhibition rate was plotted using the professional graphing and analysis software PRISM 9.0, and the IC50 was calculated.
The inhibition rates of the compounds to be tested against the kinase activity of Wee1 were calculated using the following formula: Inhibition rate% = (Lumvehicle−Lumcompound)/(Lumvehicle−Lumblank) × 100% [formula] • Lumcompound: the luminescence of the sample treatment groups • Lumvehicle: the luminescence of the solvent control group • Lumblank: the luminescence of the blank group

YES1 kinase = YES1 kinase (Homo sapiens, UniProt P07947); test: YES1 protein kinase inhibitory activity assay (HTRF); type: biochemical; conditions: for IC50: HTRF, YES1 kinase, ATP 10 µM; for inhibition of the Yes target (in words): summary statement on the assay results
Description: In this experiment, the capability of the compound MRANK-106 of the present disclosure to inhibit kinase activity was assessed by an HTRF method using a drug screening system based on the YES1 kinase.
Table 3-1. Information about reagents and consumables
The enzymatic activity conditions and HTRF system formulation are shown in Table 3-3; the experimental conditions for the kinase activity assay are shown in Table 3-4. Table 3-3. HTRF system formulation
Table 3-4. The experimental conditions for the kinase activity assay
The test compound MRANK-106 was dissolved in DMSO, and the solution was vortexed and shaken for thorough mixing. The solution was serially diluted 3-fold with DMSO, with the initial concentration being 503 nM.
① A 2× ATP/substrate solution and a 2× kinase solution were formulated using a kinase reaction buffer.
② 50 nL of the compound dilution was transferred to a 384 detection plate using Echo 655. After centrifugation, 2.5 µL of a 2× kinase solution was added to the 384 detection plate. The plate was centrifuged at 1000 rpm for 1 min and incubated at 25 °C for 10 min.
② 2.5 µL of the 2× substrate and ATP solution was added to the 384 detection plate, and the plate was centrifuged at 1000 rpm for 1 min and incubated at 25 °C for 60 min.
④ A 2× XL665 and antibody detection reagent was formulated using a detection buffer.
⑤ 5 µL of a kinase detection reagent was added to the detection plate, and the plate was incubated at 25 °C. The plate was centrifuged at 1000 rpm for 1 min and incubated at 25 °C for 1 h.
⑥ The fluorescence signals at 620 nm (Cryptate) and 665 nm (XL665) were read using a BMG high-throughput drug-screening multi-mode microplate reader.
With the reading of the negative control set as an inhibition rate of 0% and the reading of the positive control set as an inhibition rate of 100%, the inhibition rate of each test solution was calculated using the following formula: [formula] • Datapositive control: the average of the positive control well values • Datanegative control : the average of the negative control well values
The IC50 (half maximal inhibitory concentration) of the compound was obtained using the following nonlinear fitting formulas: Y = Bottom + (Top−Bottom)/(1+10^(∧)((LogIC50−X)*HillSlope)) [formula] • X: the log value of the compound concentration • Y: the inhibition rate (% inh) of the compound
The Z' factor calculation equation: Z′ = 1−3(SDmin+SDmax)/(AVEmax−AVEmin) [formula] where: • Min is the positive control Data value, and Max is the negative control DMSO Data value; • SD stands for standard deviation, and AVE stands for average.

Wee1 kinase, sequence (P30291 whole entry): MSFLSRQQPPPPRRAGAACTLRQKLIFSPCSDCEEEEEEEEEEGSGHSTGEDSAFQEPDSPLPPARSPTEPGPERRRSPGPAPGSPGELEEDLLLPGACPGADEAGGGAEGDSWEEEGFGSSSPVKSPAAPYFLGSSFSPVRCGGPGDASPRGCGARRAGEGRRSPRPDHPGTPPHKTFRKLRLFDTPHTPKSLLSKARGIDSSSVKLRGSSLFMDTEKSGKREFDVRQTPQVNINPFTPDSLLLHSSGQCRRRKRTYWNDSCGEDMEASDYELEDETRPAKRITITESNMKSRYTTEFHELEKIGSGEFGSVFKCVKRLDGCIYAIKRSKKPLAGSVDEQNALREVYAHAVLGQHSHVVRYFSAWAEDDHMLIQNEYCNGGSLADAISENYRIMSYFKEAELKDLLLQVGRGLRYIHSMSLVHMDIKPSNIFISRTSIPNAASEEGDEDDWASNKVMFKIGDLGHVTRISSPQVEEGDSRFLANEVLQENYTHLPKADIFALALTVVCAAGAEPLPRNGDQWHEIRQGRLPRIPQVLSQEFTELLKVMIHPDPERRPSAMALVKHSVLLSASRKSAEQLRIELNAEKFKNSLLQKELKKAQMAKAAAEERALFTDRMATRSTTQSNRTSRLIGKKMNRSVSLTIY
YES1 kinase, sequence (P07947 whole entry): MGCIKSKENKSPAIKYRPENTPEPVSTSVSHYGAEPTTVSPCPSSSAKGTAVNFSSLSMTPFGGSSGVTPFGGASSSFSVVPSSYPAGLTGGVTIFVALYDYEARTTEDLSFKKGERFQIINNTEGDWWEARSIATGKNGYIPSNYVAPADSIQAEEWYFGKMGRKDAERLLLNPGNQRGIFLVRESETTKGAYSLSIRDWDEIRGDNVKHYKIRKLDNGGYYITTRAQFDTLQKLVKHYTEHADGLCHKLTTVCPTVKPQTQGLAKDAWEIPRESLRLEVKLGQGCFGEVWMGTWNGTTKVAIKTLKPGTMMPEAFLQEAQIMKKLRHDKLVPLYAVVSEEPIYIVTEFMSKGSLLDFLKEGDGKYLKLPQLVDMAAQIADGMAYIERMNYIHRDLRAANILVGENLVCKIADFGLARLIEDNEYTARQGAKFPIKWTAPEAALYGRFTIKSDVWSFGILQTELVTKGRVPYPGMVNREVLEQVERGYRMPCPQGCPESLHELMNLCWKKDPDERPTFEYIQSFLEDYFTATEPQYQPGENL

| SMILES | IC50 (Wee1 kinase) | inhibition of the Weel target (in words) (Wee1 kinase) | IC50 (YES1 kinase) | inhibition of the Yes target (in words) (YES1 kinase) |
| --- | --- | --- | --- | --- |
| CCOP1(=O)CCN(c2ccc(Nc3ncc4c(=O)n5n(c4n3)-c3cccc(n3)C(C)(O)CCC=CC5)cc2F)CC1 (stereo not drawn) [Compound 180, (Z)-2-((4-(4-ethoxy-4-oxido-1,4-azaphosphinan-1-yl)-3-fluorophenyl)amino)-12-hydroxy-12-methyl-7,10,11,12-tetrahydro-5H-13,17-(azeno)pyrimido[4',5':3,4]pyrazolo[1,2-a][1,2]diazacyclotridecin-5-one] |  | strongly inhibited | 52.5 nM | strongly inhibited |
| Cc1cc(Nc2ncc3c(=O)n4n(c3n2)-c2cccc(n2)C(C)(O)CCC=CC4)ccc1NC1CC2CCC(C1)N2C (single isomer, unassigned) [Compound 225A] | 20.4 nM |  |  |  |
| Cc1cc(Nc2ncc3c(=O)n4n(c3n2)-c2cccc(n2)C(C)(O)CC/C=C\C4)ccc1CN1CCN(C)CC1 (single isomer, unassigned) [Compound 219A] | 13.1 nM |  |  |  |
| CCOP1(=O)CCN(c2ccc(Nc3ncc4c(=O)n5n(c4n3)-c3cccc(n3)C(C)(O)CCC=CC5)cc2)CC1 (stereo not drawn) [Compound 181, (Z)-2-((4-(4-ethoxy-4-oxido-1,4-azaphosphinan-1-yl)phenyl)amino)-12-hydroxy-12-methyl-7,10,11,12-tetrahydro-5H-13,17-(azeno)pyrimido[4',5':3,4]pyrazolo[1,2-a][1,2]diazacyclotridecin-5-one] | 33.2 nM |  | 117 nM |  |
| Cc1cc(Nc2ncc3c(=O)n4n(c3n2)-c2cccc(n2)C(C)(O)CC/C=C\C4)ccc1O[C@H]1CCN(C)C1 (stereo partly drawn) [Compound 186, (R,Z)-12-hydroxy-12-methyl-2-((3-methyl-4-(((S)-1-methylpyrrolidin-3-yl)oxy)phenyl)amino)-7,10,11,12-tetrahydro-5H-13,17-(azeno)pyrimido[4',5':3,4]pyrazolo[1,2-a][1,2]diazacyclotridecin-5-one] | 18.7 nM |  |  |  |
| Cc1cc(Nc2ncc3c(=O)n4n(c3n2)-c2cccc(n2)C(C)(O)CCC=CC4)ccc1CN1CCN(C)CC1=O (stereo not drawn) [Compound 199, (Z)-12-hydroxy-12-methyl-2-((3-methyl-4-((4-methyl-2-oxopiperazin-1-yl)methyl)phenyl)amino)-7,10,11,12-tetrahydro-5H-13,17-(azeno)pyrimido[4',5':3,4]pyrazolo[1,2-a][1,2]diazacyclotridecin-5-one] |  | strongly inhibited | 59.1 nM | strongly inhibited |
| Cc1cc(Nc2ncc3c(=O)n4n(c3n2)-c2cccc(n2)C(C)(O)CCC=CC4)ccc1OC1CCN(CC(F)(F)F)CC1 (stereo not drawn) [Compound 206, (Z)-12-hydroxy-12-methyl-2-((3-methyl-4-((1-(2,2,2-trifluoroethyl)piperidin-4-yl)oxy)phenyl)amino)-7,10,11,12-tetrahydro-5H-13,17-(azeno)pyrimido[4',5':3,4]pyrazolo[1,2-a][1,2]diazacyclotridecin-5-one] |  |  | 130 nM |  |

Next, values leading:

| IC50 (Wee1 kinase) | inhibition of the Weel target (in words) (Wee1 kinase) | IC50 (YES1 kinase) | inhibition of the Yes target (in words) (YES1 kinase) | SMILES |
| --- | --- | --- | --- | --- |
| 18.7 nM | strongly inhibited | 21.8 nM | strongly inhibited | CN1CC2CC(Oc3ccc(Nc4ncc5c(=O)n6n(c5n4)-c4cccc(n4)C(C)(O)CCC=CC6)cc3C(F)(F)F)CC2C1 (stereo not drawn) [Compound 223, (Z)-12-hydroxy-12-methyl-2-((4-((2-methyloctahydrocyclopenta[c]pyrrol-5-yl)oxy)-3-(trifluoromethyl)phenyl)amino)-7,10,11,12-tetrahydro-5H-13,17-(azeno)pyrimido[4',5':3,4]pyrazolo[1,2-a][1,2]diazacyclotridecin-5-one] |
|  |  | 129 nM |  | CN1CCN(C(=O)c2ccc(Nc3ncc4c(=O)n5n(c4n3)-c3cccc(n3)C(C)(O)CC/C=C\C5)cc2)CC1 [Compound 185, (R,Z)-12-hydroxy-12-methyl-2-((4-(4-methylpiperazine-1-carbonyl)phenyl)amino)-7,10,11,12-tetrahydro-5H-13,17-(azeno)pyrimido[4',5':3,4]pyrazolo[1,2-a][1,2]diazacyclotridecin-5-one] |
|  |  | 43 nM |  | CN(C)S(=O)(=O)c1ccc2c(c1)/C(=C/c1cc3c([nH]1)CCCC3)C(=O)N2 [SU6656] |
| 12.8 nM |  |  |  | Cc1cc(Nc2ncc3c(=O)n4n(c3n2)-c2cccc(n2)C(C)(O)CC/C=C\C4)ccc1OC1CC2CN(C)CC2C1 (single isomer, unassigned) [Compound 224A] |
| 16.1 nM |  |  |  | Cc1cc(Nc2ncc3c(=O)n4n(c3n2)-c2cccc(n2)C(C)(O)CC/C=C\C4)ccc1O[C@@H]1CCN(C)C1 (stereo partly drawn) [Compound 183, (R,Z)-12-hydroxy-12-methyl-2-((3-methyl-4-(((R)-1-methylpyrrolidin-3-yl)oxy)phenyl)amino)-7,10,11,12-tetrahydro-5H-13,17-(azeno)pyrimido[4',5':3,4]pyrazolo[1,2-a][1,2]diazacyclotridecin-5-one] |
| 67 nM |  |  |  | Cc1cc(Nc2ncc3c(=O)n4n(c3n2)-c2cccc(n2)[C@@](C)(O)CCCCC4)ccc1OC1CCN(C)CC1 [Compound 29, (S)-12-hydroxy-12-methyl-2-((3-methyl-4-((1-methylpiperidin-4-yl)oxy)phenyl)amino)-7,8,9,10,11,12-hexahydro-5H-13,17-(azeno)pyrimido[4',5':3,4]pyrazolo[1,2-a][1,2]diazacyclotridecin-5-one] |
| 21 nM | strongly inhibited | 68.9 nM | strongly inhibited | Cc1cc(Nc2ncc3c(=O)n4n(c3n2)-c2cccc(n2)[C@@](C)(O)CCC=CC4)ccc1OC1CCN(C)CC1 [Compound 134, (S,Z)-12-hydroxy-12-methyl-2-((3-methyl-4-((1-methylpiperidin-4-yl)oxy)phenyl)amino)-7,10,11,12-tetrahydro-5H-13,17-(azeno)pyrimido[4',5':3,4]pyrazolo[1,2-a][1,2]diazacyclotridecin-5-one] |
| 5.4 nM |  | 346 nM |  | [2H]C([2H])([2H])N1CCC(Oc2ccc(Nc3ncc4c(=O)n5n(c4n3)-c3cccc(n3)[C@@](C)(O)CCC=CC5)cc2C)CC1 (single isomer, unassigned) [Compound 171B] |
